These results are taken from PubChem BioAssay (NCI).

Some test systems named below: NCI/ADR-RES ovarian; SN12C renal; K-562 leukemia; UACC-62 melanoma; M14 melanoma; HOP-62 NSCLC; SNB-19 CNS; SF-539 CNS; OVCAR-5 ovarian; BT-549 breast.
Common to all, as to test: DTP human tumour cell line panel, 48 h

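Protocol summary: plate cells (96-well), add compound at 5 concentrations, incubate 48 h, interpolate endpoints linearly. Abbreviation: GI50, concentration required for 50% inhibition of growth. TGI: total growth inhibition.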

In general, GI50 refers to the concentration giving 50% growth inhibition. One may read the TGI as the concentration at which net growth stops.

Turning to `C#CCOc1cccc(-c2ncnc3cc(NC(=O)CCl)ccc23)c1`, the GI50 was 1.05 µM in the assay on NCI/ADR-RES ovarian; 0.115 µM in the assay on SN12C renal; 0.0612 µM in the assay with K-562 leukemia; 0.481 µM with UACC-62 melanoma; 0.66 µM in the assay with M14 melanoma; 2.36 µM in the assay with HOP-62 NSCLC. Further, the GI50 in the assay with SNB-19 CNS is 1.14 µM; in the assay with SF-539 CNS, 1.31 µM; with OVCAR-5 ovarian, 1.19 µM; with BT-549 breast it was 0.849 µM. Besides, the TGI in the assay with NCI/ADR-RES ovarian turned out to be 14.9 µM; in the assay with SN12C renal, 1.41 µM; in the assay on UACC-62 melanoma it was 3.07 µM; in the assay on M14 melanoma, 2.64 µM; with HOP-62 NSCLC, 7.18 µM; in the assay on SNB-19 CNS it was 4.86 µM. Further, the TGI in the assay with SF-539 CNS was 2.77 µM; in the assay with OVCAR-5 ovarian it was 2.86 µM; with BT-549 breast, 2.31 µM.

Turning to `Nc1ccccc1C(=O)CC1OC(=O)c2ccccc21` (stereo unspecified), the TGI in the assay with NCI/ADR-RES ovarian, in the assay on SN12C renal, with K-562 leukemia, with UACC-62 melanoma, in the assay with M14 melanoma and with HOP-62 NSCLC was more than 100 µM each time. The TGI was more than 100 µM with SNB-19 CNS, more than 100 µM with SF-539 CNS, more than 100 µM with OVCAR-5 ovarian and 90.5 µM with BT-549 breast.

In the case of `COc1ccc2c(C)cc(N/N=C/c3ccc(OC)c4ccccc34)nc2c1`, the TGI in the assay with NCI/ADR-RES ovarian stood at 32.7 µM; with SN12C renal it was 5.52 µM; in the assay on K-562 leukemia, 32.3 µM; in the assay on UACC-62 melanoma it was 28.3 µM; with M14 melanoma, 31.9 µM; with HOP-62 NSCLC, 34.4 µM. Also, the TGI with SNB-19 CNS came to 41.9 µM; with SF-539 CNS it was 30.6 µM; with OVCAR-5 ovarian, 29.1 µM; in the assay on BT-549 breast, 46.2 µM.

Turning to `Cc1ccc(-c2csc(/N=C3\C(=O)Nc4ccccc43)n2)cc1`, the GI50 in the assay on NCI/ADR-RES ovarian was 20.7 µM; in the assay on K-562 leukemia, 1.73 µM; in the assay on UACC-62 melanoma, 1.37 µM; in the assay on M14 melanoma, 1.32 µM; with SNB-19 CNS, 1.52 µM; with SF-539 CNS, 1.71 µM. The GI50 in the assay with OVCAR-5 ovarian was 1.93 µM; in the assay on BT-549 breast it was 1.49 µM. Also, the concentration for total growth inhibition (TGI) is more than 100 µM in the assay with NCI/ADR-RES ovarian; more than 100 µM with K-562 leukemia; 2.83 µM with UACC-62 melanoma; 2.79 µM in the assay with M14 melanoma; 3.19 µM in the assay with SNB-19 CNS; 3.45 µM in the assay on SF-539 CNS. The TGI was determined as 4.57 µM with OVCAR-5 ovarian and 3.06 µM with BT-549 breast.

Consider `COc1cc(NC(N)=NCCC(C)(C)Oc2ccc(C(F)(F)F)cc2)ncc1C#N`, for which the GI50 in the assay with NCI/ADR-RES ovarian is 1.66 µM; in the assay on SN12C renal it was 1.85 µM; in the assay on UACC-62 melanoma, 1.78 µM; with M14 melanoma, 1.62 µM; with HOP-62 NSCLC it was 1.75 µM; with SNB-19 CNS, 1.84 µM. The GI50 was 1.8 µM in the assay with SF-539 CNS, 1.88 µM with OVCAR-5 ovarian and 1.81 µM with BT-549 breast. In addition, the TGI in the assay on NCI/ADR-RES ovarian was determined as 3.24 µM; in the assay with SN12C renal, 3.35 µM; in the assay with UACC-62 melanoma, 3.18 µM; with M14 melanoma, 3.11 µM; in the assay with HOP-62 NSCLC it was 3.2 µM; in the assay on SNB-19 CNS, 3.3 µM. In addition, the TGI in the assay on SF-539 CNS was 3.26 µM; in the assay on OVCAR-5 ovarian, 3.36 µM; in the assay on BT-549 breast, 3.38 µM.

With `Nc1ccc(C2=NN(c3ccccc3)C(c3ccc(Cl)cc3)C2)cc1` (stereo unspecified), the GI50 was 3.64 µM with NCI/ADR-RES ovarian; 1.85 µM in the assay on SN12C renal; 3.12 µM in the assay on UACC-62 melanoma; 2.35 µM with M14 melanoma; 2.01 µM in the assay on HOP-62 NSCLC; 2.9 µM in the assay on SNB-19 CNS. Moreover, the GI50 in the assay on SF-539 CNS is 1.93 µM; with OVCAR-5 ovarian, 10.6 µM; in the assay on BT-549 breast, 2.21 µM. For the same molecule, the TGI in the assay with NCI/ADR-RES ovarian stood at 19.4 µM; in the assay on SN12C renal it was 4.53 µM; in the assay with UACC-62 melanoma it was 12.9 µM; in the assay on M14 melanoma it was 5.34 µM; in the assay on HOP-62 NSCLC it was 5.05 µM; with SNB-19 CNS, 14.1 µM. Moreover, the values for the TGI in the assay on SF-539 CNS, in the assay with OVCAR-5 ovarian and with BT-549 breast were 4.21 µM, 24.8 µM and 5.32 µM, respectively.

In the case of `CNC(=O)c1ccc(N2CCN(Cc3ccc4nc(C)c(=O)[nH]c4c3F)CC2)c(F)n1`, the GI50 was 78.8 µM with NCI/ADR-RES ovarian; 57.7 µM with SN12C renal; more than 100 µM in the assay with K-562 leukemia; more than 100 µM in the assay on M14 melanoma; 43.7 µM in the assay on HOP-62 NSCLC; 34.2 µM in the assay on SNB-19 CNS. For the same molecule, the GI50 in the assay on SF-539 CNS is 55.4 µM; in the assay on OVCAR-5 ovarian, more than 100 µM; in the assay on BT-549 breast, 89.6 µM. For the same molecule, the concentration for total growth inhibition (TGI) in the assay with NCI/ADR-RES ovarian, in the assay with SN12C renal, with K-562 leukemia, in the assay on M14 melanoma, in the assay with HOP-62 NSCLC and in the assay on SNB-19 CNS was more than 100 µM in each case. Further, the TGI with SF-539 CNS, in the assay on OVCAR-5 ovarian and in the assay with BT-549 breast was more than 100 µM each time.

Regarding `CC(C)=CCc1c(OC(=O)c2c(C)cc(O)cc2O)cc(CO)c(CO)c1O`, the TGI came to 85.6 µM in the assay on NCI/ADR-RES ovarian; 34.9 µM with SN12C renal; 32.9 µM in the assay with K-562 leukemia; 29.6 µM with UACC-62 melanoma; 44.7 µM in the assay on M14 melanoma; 21.2 µM with SNB-19 CNS. In addition, the TGI is 38 µM in the assay on SF-539 CNS, 43.1 µM in the assay on OVCAR-5 ovarian and 41 µM in the assay on BT-549 breast.

Regarding `CCOC(=O)N1CCN(c2nc(Nc3cc(C)[nH]n3)c3ccccc3n2)CC1`, the GI50 with NCI/ADR-RES ovarian is 4.25 µM; in the assay with SN12C renal, 2.24 µM; with K-562 leukemia it was 2.94 µM; in the assay on M14 melanoma it was 9.16 µM; in the assay with HOP-62 NSCLC, 2.81 µM; in the assay on SNB-19 CNS, 10.3 µM. Also, the GI50 with SF-539 CNS is 1.92 µM; in the assay with OVCAR-5 ovarian, 3.25 µM; in the assay with BT-549 breast, 3.85 µM. Also, the TGI in the assay with NCI/ADR-RES ovarian is 37 µM; in the assay with SN12C renal it was 52 µM; in the assay on K-562 leukemia, more than 100 µM; in the assay on M14 melanoma, 28.9 µM; with HOP-62 NSCLC, more than 100 µM; with SNB-19 CNS it was more than 100 µM. The TGI is 9.7 µM in the assay on SF-539 CNS, more than 100 µM in the assay on OVCAR-5 ovarian and 16.2 µM in the assay with BT-549 breast.
